From patent US20130280235A1, “METHODS OF DIAGNOSIS AND TREATMENT FOR METABOLIC DISORDERS” (DiaMedica Inc., priority 2006, published 2013)

What was measured:
[1] = test system: Sprague-Dawley rats; assay: Euglycemic hyperinsulinemic clamp in rats made insulin resistant by a high-sucrose diet; format: in vivo, rat; details: up to one unit by bolus IV injection, last hour of 2 h clamp, versus saline controls
Method: A litter of 14 Sprague-Dawley rats, (from Charles River, St-Constant, Canada), obtained at 5 weeks old are accommodated individually in cages. The animals are acclimatized to a temperature of 22° C.+/−1° C. and constant humidity and airflow conditions. The animals are fed a high sucrose diet. During the 2 weeks prior to experimentation, the animals have free access to tap water, are provided their controlled diet and their body weight and food intake are recorded every other day. The high-sucrose diet consists of 62.5% (wt/wt) sucrose, 6.5% corn oil, 20% protein (casein, purified high nitrogen), 0.3% dl-methionine, 1% vitamin mix, 4.7% mineral mix and 5% cellulose. The energy density of the high-sucrose diet is 16.81 kJ/g. This high-sucrose diet induces insulin resistance. […]
Analytical Methods—The rats are anesthetized and venous blood samples are taken for plasma glucose and insulin assessment and rapidly centrifuged. […] Resting heart rate, blood pressure and regional blood flows are recorded over 30 minutes in quiet, unrestrained and unsedated rats.
Euglycemic Clamp Methodology—All rats receive an infusion of regular porcine insulin at a rate of 16 mU·kg^−1·min^−1 for 2 hours. […] The Euglycemic hyperinsulinemic clamp is performed over 2 hours, while blood pressure, heart rate, and regional blood flow is measured continuously with blood samples. […]

[2] = test system: Wistar rats; assay: Oral glucose challenge (2 g/kg) in fasted rats, serum glucose by enzymatic method (Mutaratase-GOD); format: in vivo, rat; details: male Wistar rats; for Blood Glucose at T0: fasted, agent given one hour before, sample immediately prior to oral glucose loading; for Blood Glucose at T90: 90 minutes post oral glucose challenge 2 g/kg; for Change in Blood Glucose: T0 to T90 after oral glucose 2 g/kg
Method: Groups of 5 male Wistar rats weighing 200+/−10 g were employed. Fasted animals were injected with agent or placebo (GLP-1, 1 nmole/kg, iv) and/or gavaged with agent or placebo (tissue kallikrein (SIGMA), 200 U) one hour prior to glucose challenge. A blood sample was taken immediately prior oral glucose loading (2 g/kg). At 90 minutes post glucose challenge a second blood sample was taken. The serum glucose samples were assessed by enzymatic method (Mutaratase-GOD) for the time points.

Row | Substance | Area under the curve of glucose required to maintain euglycemia (index of insulin sensitivity) [1] | Blood Glucose at T0 [2] [mg/dL] | Blood Glucose at T90 [2] [mg/dL] | Change in Blood Glucose [2] [mg/dL]
1 | kallikrein | greater area under the curve |  |  | 
2 | tissue kallikrein [tissue kallkrein] |  | 109 | 229 | 120.2 ± 20.7
3 | glucagon like peptide 1 [GLP-1] |  | 110 | 216 | 116.1 ± 18.1
